# Measurements: patent US20100292266A1, “Oxazolyl Piperidine Modulators of Fatty Acid Amide Hydrolase” (priority 2006, published 2010)
# Molecular target: T1, Rat FAAH (Rattus norvegicus, UniProt P97612)
# T1 construct: expressed in transfected cells
# T1 sequence (P97612 1-579): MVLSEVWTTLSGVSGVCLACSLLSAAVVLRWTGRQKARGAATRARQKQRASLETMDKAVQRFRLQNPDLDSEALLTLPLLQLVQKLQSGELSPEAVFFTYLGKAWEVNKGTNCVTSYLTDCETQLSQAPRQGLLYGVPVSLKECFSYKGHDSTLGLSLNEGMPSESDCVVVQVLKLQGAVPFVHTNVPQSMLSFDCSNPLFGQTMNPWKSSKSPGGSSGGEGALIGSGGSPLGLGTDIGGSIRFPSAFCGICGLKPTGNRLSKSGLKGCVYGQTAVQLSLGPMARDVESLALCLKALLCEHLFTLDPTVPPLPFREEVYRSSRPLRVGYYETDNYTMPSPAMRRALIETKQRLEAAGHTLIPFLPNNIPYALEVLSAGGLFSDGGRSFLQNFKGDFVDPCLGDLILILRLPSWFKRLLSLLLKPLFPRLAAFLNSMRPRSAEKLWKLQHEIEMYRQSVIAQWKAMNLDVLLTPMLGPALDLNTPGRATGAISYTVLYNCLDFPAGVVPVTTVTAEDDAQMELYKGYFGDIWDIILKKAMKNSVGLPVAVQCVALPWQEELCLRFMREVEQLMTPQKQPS
# Test: Assay Method 2: FAAH assay, 3H-anandamide hydrolysis in cell homogenate
# Format: biochemical
# Conditions: transfected SK-N-MC cell homogenate, 80 nM 3H-AEA, 1 h rt, > = solubility limit or highest concentration tested
# Protocol: A. Transfection of Cells with Rat FAAH
# (§1) A 10-cm tissue culture dish with a confluent monolayer of SK-N-MC cells was split 2 days (d) prior to transfection. Using sterile technique, the media was removed and the cells were detached from the dish by the addition of trypsin. One fifth of the cells were then placed onto a new 10-cm dish. Cells were grown in a 37° C. incubator with 5% CO2 in Minimal Essential Media Eagle with 10% Fetal Bovine Serum. After 2 d, cells were approximately 80% confluent. These cells were removed from the dish with trypsin and pelleted in a clinical centrifuge. The pellet was re-suspended in 400 μL complete media and transferred to an electroporation cuvette with a 0.4 cm gap between the electrodes. Supercoiled rat FAAH cDNA (1 μg) was added to the cells and mixed. The voltage for the electroporation was set at 0.25 kV, and the capacitance was set at 960 μF. After electroporation, the cells were diluted into complete media (10 mL) and plated onto four 10-cm dishes. Because of the variability in the efficiency of electroporation, four different concentrations of cells were plated. The ratios used were 1:20, 1:10, and 1:5, with the remainder of the cells being added to the fourth dish. The cells were allowed to recover for 24 h before adding the selection media (complete media with 600 μg/mL G418). After 10 d, dishes were analyzed for surviving colonies of cells. Dishes with well-isolated colonies were used. Cells from individual colonies were isolated and tested.
# (§2) The assay mixture consisted of 50 μL of the cell homogenate, 10 μL of the test compound, and 40 μL of anandamide [1-^3H-ethanolamine] (^3H-AEA, Perkin-Elmer, 10.3 Ci/mmol), which was added last, for a final tracer concentration of 80 nM. The reaction mixture was incubated at it for 1 h. During the incubation, 96-well Multiscreen filter plates (catalog number MAFCNOB50; Millipore, Bedford, Mass., USA) were loaded with 25 μL of activated charcoal (Multiscreen column loader, catalog number MACL09625, Millipore) and washed once with 100 μL of MeOH. Also during the incubation, 96-well DYNEX MicroLite plates (catalog number NL510410) were loaded with 100 μL of MicroScint40 (catalog number 6013641, Packard Bioscience, Meriden, Conn., USA). After the 1 h incubation, 60 μL of the reaction mixture were transferred to the charcoal plates, which were then assembled on top of the DYNEX plates using Centrifuge Alignment Frames (catalog number MACF09604, Millipore). The unbound labeled ethanolamine . was centrifuged through to the bottom plate (5 min at 2000 rpm), which was preloaded with the scintillant, as described above. The plates were sealed and left at rt for 1 h before counting on a Hewlett Packard TopCount.
# (§3) Where activity is shown as greater than (>) a particular value, the value is the solubility limit of the compound in the assay medium or the highest concentration tested in the assay.
row,Compound,IC50 [nM]
1,"Cc1cccc2cc(CN3CCC(C(=O)c4ncco4)CC3)c(Cl)nc12 [Example 73, [1-(2-Chloro-8-methyl-quinolin-3-ylmethyl)-piperidin-4-yl]-oxazol-2-yl-methanone]",4
2,"CS(=O)(=O)c1cc(Br)ccc1CN1CCC(C(=O)c2ncco2)CC1 [Example 25, [1-(4-Bromo-2-methanesulfonyl-benzyl)-piperidin-4-yl]-oxazol-2-yl-methanone]",23
3,"COc1ccc(CN2CCC(C(=O)c3ncco3)CC2)cn1 [Example 81, [1-(6-Methoxy-pyridin-3-ylmethyl)-piperidin-4-yl]-oxazol-2-yl-methanone]",1700
4,"Cc1ccc(CN2CCC(C(=O)c3ncco3)CC2)cc1 [Example 64, [1-(4-Methyl-benzyl)-piperidin-4-yl]-oxazol-2-yl-methanone]",484
5,"COc1ccc2cc(CN3CCC(C(=O)c4ncco4)CC3)c(Cl)nc2c1 [Example 68, [1-(2-Chloro-7-methoxy-quinolin-3-ylmethyl)-piperidin-4-yl]-oxazol-2-yl-methanone]",511
6,"O=C(c1ncco1)C1CCN(Cc2ccc(Br)c([N+](=O)[O-])c2)CC1 [Example 26, [1-(4-Bromo-3-nitro-benzyl)-piperidin-4-yl]-oxazol-2-yl-methanone]",9
7,"Cc1ccc2nc(Cl)c(CN3CCC(C(=O)c4ncco4)CC3)cc2c1 [Example 74, [1-(2-Chloro-6-methyl-quinolin-3-ylmethyl)-piperidin-4-yl]-oxazol-2-yl-methanone]",87
8,"O=C(c1ncco1)C1CCN(Cc2ccncc2)CC1 [Example 58, Oxazol-2-yl-(1-pyridin-4-ylmethyl-piperidin-4-yl)-methanone]",> 10000
9,"COc1ccc(S(=O)(=O)N2CCC(C(=O)c3ncco3)CC2)cc1 [Example 2, [1-(4-Methoxy-benzenesulfonyl)-piperidin-4-yl]-oxazol-2-yl-methanone]",> 10000
10,"O=C(c1ncco1)C1CCN(Cc2cccnc2)CC1 [Example 59, Oxazol-2-yl-(1-pyridin-3-ylmethyl-piperidin-4-yl)-methanone]",> 10000
11,"O=C(c1ncco1)C1CCN(C(=O)c2ccccc2Cl)CC1 [Example 13, [1-(2-Chloro-benzoyl)-piperidin-4-yl]-oxazol-2-yl-methanone]",> 10000
12,"CC(c1ccccc1)N1CCC(C(=O)c2ncco2)CC1 (stereo not shown) [Example 90, Oxazol-2-yl-[1-(1-phenyl-ethyl)-piperidin-4-yl]-methanone]",> 10000
13,"COc1cccc(C(=O)N2CCC(C(=O)c3ncco3)CC2)c1 [Example 7, [1-(3-Methoxy-benzoyl)-piperidin-4-yl]-oxazol-2-yl-methanone]",> 10000

# Molecular target: T2, FAAH (Homo sapiens, UniProt O00519)
# T2 sequence (O00519 1-579): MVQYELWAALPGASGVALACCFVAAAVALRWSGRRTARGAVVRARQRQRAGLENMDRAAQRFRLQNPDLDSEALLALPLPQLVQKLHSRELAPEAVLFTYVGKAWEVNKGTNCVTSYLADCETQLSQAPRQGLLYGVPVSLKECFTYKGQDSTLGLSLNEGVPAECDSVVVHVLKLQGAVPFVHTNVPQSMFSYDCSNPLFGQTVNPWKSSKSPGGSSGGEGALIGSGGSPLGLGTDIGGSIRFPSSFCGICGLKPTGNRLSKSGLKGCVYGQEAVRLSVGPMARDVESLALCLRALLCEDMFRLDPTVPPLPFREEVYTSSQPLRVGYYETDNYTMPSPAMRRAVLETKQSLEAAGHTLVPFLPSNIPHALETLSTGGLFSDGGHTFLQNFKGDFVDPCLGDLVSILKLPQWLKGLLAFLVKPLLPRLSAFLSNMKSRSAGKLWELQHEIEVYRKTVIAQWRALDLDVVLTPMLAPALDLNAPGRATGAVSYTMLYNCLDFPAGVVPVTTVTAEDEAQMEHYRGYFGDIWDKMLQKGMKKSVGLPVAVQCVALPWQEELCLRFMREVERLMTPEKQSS
# Test: Assay Method 1: FAAH assay, 3H-anandamide hydrolysis in cell homogenate
# Format: biochemical
# Parameters: expressed in transfected cells
# Conditions: T84 or transfected SK-N-MC cell homogenate, 80 nM 3H-AEA, 1 h rt, > = solubility limit or highest concentration tested
# Protocol: A. Transfection of Cells with Human FAAH
# as §1, with “Supercoiled human” for “Supercoiled rat”
# as §2, with “at rt” for “at it”, “ethanolamine” for “ethanolamine .”
# as §3
row,Compound,IC50 [nM]
1,"Cc1cccc2cc(CN3CCC(C(=O)c4ncco4)CC3)c(Cl)nc12 [Example 73, [1-(2-Chloro-8-methyl-quinolin-3-ylmethyl)-piperidin-4-yl]-oxazol-2-yl-methanone]",2
2,"CS(=O)(=O)c1cc(Br)ccc1CN1CCC(C(=O)c2ncco2)CC1 [Example 25, [1-(4-Bromo-2-methanesulfonyl-benzyl)-piperidin-4-yl]-oxazol-2-yl-methanone]",13
3,"COc1ccc(CN2CCC(C(=O)c3ncco3)CC2)cn1 [Example 81, [1-(6-Methoxy-pyridin-3-ylmethyl)-piperidin-4-yl]-oxazol-2-yl-methanone]",315
4,"Cc1ccc(CN2CCC(C(=O)c3ncco3)CC2)cc1 [Example 64, [1-(4-Methyl-benzyl)-piperidin-4-yl]-oxazol-2-yl-methanone]",112
5,"COc1ccc2cc(CN3CCC(C(=O)c4ncco4)CC3)c(Cl)nc2c1 [Example 68, [1-(2-Chloro-7-methoxy-quinolin-3-ylmethyl)-piperidin-4-yl]-oxazol-2-yl-methanone]",294
6,"O=C(c1ncco1)C1CCN(Cc2ccc(Br)c([N+](=O)[O-])c2)CC1 [Example 26, [1-(4-Bromo-3-nitro-benzyl)-piperidin-4-yl]-oxazol-2-yl-methanone]",3
7,"Cc1ccc2nc(Cl)c(CN3CCC(C(=O)c4ncco4)CC3)cc2c1 [Example 74, [1-(2-Chloro-6-methyl-quinolin-3-ylmethyl)-piperidin-4-yl]-oxazol-2-yl-methanone]",17
8,"CCOc1ccc(CN2CCC(C(=O)c3ncco3)CC2)cc1 [Example 28, [1-(4-Ethoxy-benzyl)-piperidin-4-yl]-oxazol-2-yl-methanone]",772
9,"O=C(c1ncco1)C1CCN(S(=O)(=O)c2ccccc2Cl)CC1 [Example 6, [1-(2-Chloro-benzenesulfonyl)-piperidin-4-yl]-oxazol-2-yl-methanone]",5000
10,"O=C(c1ncco1)C1CCN(C(=O)c2cccc(Cl)c2)CC1 [Example 12, [1-(3-Chloro-benzoyl)-piperidin-4-yl]-oxazol-2-yl-methanone]",9000
11,"CC(C)Oc1cccc(CN2CCC(C(=O)c3ncco3)CC2)c1 [Example 24, [1-(3-Isopropoxy-benzyl)-piperidin-4-yl]-oxazol-2-yl-methanone]",118
12,"O=C(c1ncco1)C1CCN(Cc2ccc(OC3CCCCC3)cc2)CC1 [Example 21, [1-(4-Cyclohexyloxy-benzyl)-piperidin-4-yl]-oxazol-2-yl-methanone]",750
13,"COc1cccc(S(=O)(=O)N2CCC(C(=O)c3ncco3)CC2)c1 [Example 3, [1-(3-Methoxy-benzenesulfonyl)-piperidin-4-yl]-oxazol-2-yl-methanone]",8000
14,"CN(C)c1ccc(CN2CCC(C(=O)c3ncco3)CC2)cc1 [Example 20, [1-(4-Dimethylamino-benzyl)-piperidin-4-yl]-oxazol-2-yl-methanone]",200
15,"CC(C)COc1ccc(CN2CCC(C(=O)c3ncco3)CC2)cc1 [Example 17, [1-(4-Isobutoxy-benzyl)-piperidin-4-yl]-oxazol-2-yl-methanone]",180
